One assay addresses human ATIC (Homo sapiens, UniProt P31939). As to the kind of experiment: AICAR Tfase inhibition assay with human ATIC. Type of assay: biochemical.
The target of assay [1] is T1, AICAR Tfase activity of avian ATIC (Gallus gallus, UniProt P31335).
T1 sequence (P31335 1-593): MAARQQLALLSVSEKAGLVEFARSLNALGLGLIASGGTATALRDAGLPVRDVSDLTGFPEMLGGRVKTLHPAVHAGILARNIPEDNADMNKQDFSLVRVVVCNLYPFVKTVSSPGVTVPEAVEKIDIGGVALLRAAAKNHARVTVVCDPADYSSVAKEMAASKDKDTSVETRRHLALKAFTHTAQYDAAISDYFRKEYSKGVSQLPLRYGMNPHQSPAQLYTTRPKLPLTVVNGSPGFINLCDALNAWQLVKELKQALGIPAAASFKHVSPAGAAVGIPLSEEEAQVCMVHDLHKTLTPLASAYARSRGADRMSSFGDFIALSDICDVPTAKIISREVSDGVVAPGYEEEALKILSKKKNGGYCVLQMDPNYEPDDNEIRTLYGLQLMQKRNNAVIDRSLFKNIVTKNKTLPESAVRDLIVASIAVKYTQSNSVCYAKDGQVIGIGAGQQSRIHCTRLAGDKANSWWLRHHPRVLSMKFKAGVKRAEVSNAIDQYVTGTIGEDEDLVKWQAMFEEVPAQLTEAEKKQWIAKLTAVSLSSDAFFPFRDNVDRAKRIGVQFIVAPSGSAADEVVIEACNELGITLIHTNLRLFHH
As to the kind of experiment: AICAR Tfase inhibition assay.

Assay [2] deals with T2, AICAR Tfase activity of ATIC (Gallus gallus, UniProt P31335).
T2 sequence (P31335 1-593): T1 sequence (P31335 1-593)
Description: AICAR Tfase inhibition in the presence of BSA. It is filed as biochemical. To be noted: compound at 10 μM and 50 μM; 1 mg/mL and 10 mg/mL BSA.

The target of the next assay is human ATIC homodimer (Homo sapiens, UniProt P31939). Description: Size exclusion chromatography of ATIC monomer/dimer ratio. It is filed as binding. To be noted: 50 μM ATIC treated with 10 μM compound.
For assay [3], the system named is MCF-7 cells. Description: MTS-based cell proliferation. To be noted: 48 hours after dosing.
The test system of assay [4] is MCF-7 cells. As to the kind of experiment: Live-cell imaging. Type of assay: cell-based. The conditions noted are these: MCF-7, 250 μM.

Where two headings read alike, the source gives them in different places. Peptide text beside a SMILES is read from it.

Sequence of human ATIC (P31939 whole entry): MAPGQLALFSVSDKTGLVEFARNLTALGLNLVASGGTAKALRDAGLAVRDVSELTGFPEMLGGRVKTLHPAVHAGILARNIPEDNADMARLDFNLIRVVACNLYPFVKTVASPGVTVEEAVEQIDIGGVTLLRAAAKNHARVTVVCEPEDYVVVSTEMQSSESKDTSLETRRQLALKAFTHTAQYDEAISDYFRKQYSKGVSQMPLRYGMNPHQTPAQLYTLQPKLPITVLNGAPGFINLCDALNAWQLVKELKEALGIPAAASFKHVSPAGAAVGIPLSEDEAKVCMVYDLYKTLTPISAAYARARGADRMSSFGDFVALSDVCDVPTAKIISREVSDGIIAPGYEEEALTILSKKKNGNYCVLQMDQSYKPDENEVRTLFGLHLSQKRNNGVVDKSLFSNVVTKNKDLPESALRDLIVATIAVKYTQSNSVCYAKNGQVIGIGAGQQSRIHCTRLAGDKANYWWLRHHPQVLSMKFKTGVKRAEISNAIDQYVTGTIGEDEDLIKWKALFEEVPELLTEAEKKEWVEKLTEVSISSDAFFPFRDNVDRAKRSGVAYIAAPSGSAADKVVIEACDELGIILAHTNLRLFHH
Sequence of human ATIC homodimer (P31939 whole entry): as above

For the compound `CC(C)[C@@H]1NC(=O)[C@H](CC(N)=O)NC(=O)[C@H](Cc2ccccc2)NC(=O)[C@H](Cc2ccc(O)cc2)NC(=O)[C@H](CCCNC(=N)N)NC(=O)[C@H](CS)NC1=O` [Compound 1, cyclo-CRYFNV] (cyclo(RYFNVC)), the “Ki with human ATIC compared to the avian enzyme” value on human ATIC is listed as “same Ki (within error)”.
As for `CC(C)[C@@H]1NC(=O)[C@H](CC(N)=O)NC(=O)[C@H](Cc2ccccc2)NC(=O)[C@H](Cc2ccc(O)cc2)NC(=O)[C@H](CCCNC(=N)N)NC(=O)[C@H](C)NC1=O` [Compound 2, cyclo-ARYFNV] (cyclo(ARYFNV)), in assay [1], the affinity corresponds to a Ki of 651 ± 25 µM.
Still for that read-out and setting: for `CC(C)[C@@H]1NC(=O)[C@H](CC(N)=O)NC(=O)[C@H](Cc2ccccc2)NC(=O)[C@H](Cc2ccc(O)cc2)NC(=O)[C@H](C)NC(=O)[C@H](CS)NC1=O` [Compound 3, cyclo-CAYFNV] (cyclo(AYFNVC)) the value was over 2500 µM.
The same measure, in the same setting: the same measure for `CC(C)[C@@H]1NC(=O)[C@H](CC(N)=O)NC(=O)[C@H](Cc2ccccc2)NC(=O)[C@H](C)NC(=O)[C@H](CCCNC(=N)N)NC(=O)[C@H](CS)NC1=O` [Compound 4, cyclo-CRAFNV] (cyclo(AFNVCR)): over 2500 µM.
Still for that read-out and setting: the same measure for `CC(C)[C@@H]1NC(=O)[C@H](CC(N)=O)NC(=O)[C@H](C)NC(=O)[C@H](Cc2ccc(O)cc2)NC(=O)[C@H](CCCNC(=N)N)NC(=O)[C@H](CS)NC1=O` [Compound 5, cyclo-CRYANV] (cyclo(ANVCRY)): 38 ± 5 µM.
The compound `CC(C)[C@@H]1NC(=O)[C@H](C)NC(=O)[C@H](Cc2ccccc2)NC(=O)[C@H](Cc2ccc(O)cc2)NC(=O)[C@H](CCCNC(=N)N)NC(=O)[C@H](CS)NC1=O` [Compound 6, cyclo-CRYFAV] (cyclo(AVCRYF)) yielded an inhibitory constant (Ki) in assay [1] of 368 ± 29 µM.
The same measure, in the same setting: for `C[C@@H]1NC(=O)[C@H](CC(N)=O)NC(=O)[C@H](Cc2ccccc2)NC(=O)[C@H](Cc2ccc(O)cc2)NC(=O)[C@H](CCCNC(=N)N)NC(=O)[C@H](CS)NC1=O` [Compound 7, cyclo-CRYFNA] (cyclo(ACRYFN)) the value was 252 ± 22 µM.
As to `CCN(CC)C(=O)[C@H](Cc1ccc([N+](=O)[O-])cc1)NC(=O)[C@H](CCCNC(=N)N)NC(C)=O` [Compound 14, Acetyl-Arg-CONH-Phe(4-NO2)-L-Diethylamide], the “Ki with human ATIC compared to the avian enzyme” value at human ATIC is reported as “same Ki (within error)”. In addition, the “AICAR Tfase inhibition in presence of BSA” value in assay [2] is listed as “continued to inhibit the reaction to a similar extent as observed in the absence of BSA”. Besides, on human ATIC homodimer, the “ATIC species observed by size exclusion chromatography” value was “presence of monomeric ATIC”. Besides, the inhibition of viability in the assay with MCF-7 cells [3] (MCF-7, 500 μM (maximum dose)) is given as 40%. Further, the “effect on viability” value in the assay with MCF-7 cells [3] (MCF-7, 100, 250 or 500 μM) was “dose-dependent reduction in viability”. Moreover, in the assay with MCF-7 cells [4] (analysis of videos over 72 hours), the “mechanism of effect on cell numbers” value was “reduction in cell division rates, rather than an increase in cell death”. In addition, in the assay with MCF-7 cells [4] (time-lapse microscopy over 72 hours), the “reduction in proliferation compared to control-treated cells” value turned out to be 35%. Besides, in assay [1] (Table 2, RY analogues, avian ATIC, 25 °C), the Ki was found to be 0.685 ± 0.035 µM. Further, the “fold improvement in activity compared to capped RY dimer 8” value in assay [1] (from Ki values of Table 2) turned out to be 120 fold.
As for linear-CRYFNV [reference compound], the “fold loss of activity compared to cyclo-CRYFNV” value in assay [1] (from Ki values) amounted to 8 fold.

The values above are taken from paper PMC3517147 (Chembiochem : a European journal of chemical biology, 2012).
